The subject of data set [1] is C. parvum Zambriski Laboratory isolate. As to the kind of experiment: Calibr high-content imaging Cryptosporidium panel. The data set is classed as cell-based, Cryptosporidium parvum. As to conditions: Calibr Crypto Panel 2.
Data set [2] relates to C. hominis TU502 isolate. As to the kind of experiment: Calibr high-content imaging Cryptosporidium panel. The data set is classed as cell-based, Cryptosporidium hominis.
Data set [3] deals with HEK293T. As to the kind of experiment: 72H HEK293T Cytotoxicity. The data set is classed as cell-based.
The subject of data set [4] is HCT-8 cells. Description: HCT-8 host cell count (Calibr). The settings on record: read-out: HCT-8 Cell Count CC50; host cells infected with Sterling oocysts.
Data set [5] concerns C. parvum Bunch Grass Farms isolate. Description: Calibr high-content imaging Cryptosporidium panel. It counts as cell-based, Cryptosporidium parvum. The settings on record: Calibr Crypto Panel 2.
For data set [6], the system named is C. parvum U AZ Laboratory isolate. As to the kind of experiment: microbe, parasite or virus in culture. The data set is classed as cell-based, Cryptosporidium parvum.
For data set [7], the system named is NLuc-expressing C. parvum. As to the kind of experiment: NLuc C. parvum IFNγ-KO mouse infection model, oocyst shedding. It counts as in vivo.
Data set [8] in a line: Mouse plasma, brain and GI exposure PK, Balb/c, 30 mg/kg PO. As to conditions: Brains, 0.5 hr, individual samples.
Data set [9] deals with A-375, Hs294T, MEWO, and Colo678 carcinoma cell lines.
For data set [10] the following is noted: dog, in vivo.
The test system of data set [11] is C. parvum. The settings on record: bovine, in vivo.
Data set [12] has as its system NLuc-expressing C. parvum. On the set-up: method as in PMID 30830766. The settings on record: 8 mg/kg QD x 5 PO, 20 days p.i.; cited from earlier work.
For data set [13] the following is noted: cited from earlier work.
For data set [14], the system named is NLuc C. parvum. Also on record: method as in PMID 30830766. As to conditions: cited from earlier work.
Data set [15] deals with T1, 5-HT2B (Homo sapiens, UniProt P41595).
T1 construct: Cerep (Eurofins, France)
T1 sequence (P41595 whole entry): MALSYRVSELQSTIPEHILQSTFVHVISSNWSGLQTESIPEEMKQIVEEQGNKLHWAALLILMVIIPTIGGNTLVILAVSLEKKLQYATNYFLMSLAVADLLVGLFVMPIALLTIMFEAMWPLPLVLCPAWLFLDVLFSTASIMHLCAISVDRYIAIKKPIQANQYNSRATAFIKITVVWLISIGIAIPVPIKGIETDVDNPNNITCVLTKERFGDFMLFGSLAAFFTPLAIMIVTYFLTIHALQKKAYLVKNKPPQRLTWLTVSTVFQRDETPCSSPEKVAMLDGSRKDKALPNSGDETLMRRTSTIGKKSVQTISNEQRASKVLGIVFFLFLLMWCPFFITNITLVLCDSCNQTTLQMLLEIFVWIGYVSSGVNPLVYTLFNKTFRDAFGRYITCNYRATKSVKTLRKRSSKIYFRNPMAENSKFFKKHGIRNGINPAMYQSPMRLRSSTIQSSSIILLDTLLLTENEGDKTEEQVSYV
Description: Cerep binding assay. The settings on record: agonist radioligand, mean, read-out: % inhibition of control specific binding.

Data set [16] deals with micronuclei in interphase cells. As to the kind of experiment: In vitro micronucleus (IVMN) test.
The conditions of data set [17]: female, Balb/c, mouse, in vivo.

Values joined by “and” are separate entries in the source; they are usually repeats but may differ in a detail not shown here. Equal values may be shown once.

Consider `CCOc1ccc2cc(-c3nn(CC4CCN(C)CC4)c4ncnc(N)c34)ccc2c1` [BKI-1294], for which the concentration for a half-maximal effect (EC50) – broadly, the concentration giving half of the maximal effect – in data set [1] (read-out: Wild C. parvum Spot Count EC50) stood at 0.337 µM; in data set [2] (Calibr Crypto Panel 2, 2018-07-02, read-out: C. hominis Spot Count EC50) it was 2.82 µM; in [5] (read-out: Bunch Grass Farm C. parvum Spot Count EC50), 2.02 µM; in data set [6] (Calibr Crypto Panel 2, 2018-06-18, read-out: Sterling Lab C. parvum Spot Count EC50) it was 0.468 µM. Besides, the EC90 (as a rule, the point of the concentration-response curve where the effect stands at 90%) in data set [1] (read-out: Wild C. parvum Spot Count EC90) is 27.3 µM; in data set [2] (Calibr Crypto Panel 2, read-out: C. hominis Spot Count EC90) it was 14.8 µM; in data set [5] (read-out: Bunch Grass Farm C. parvum Spot Count EC90), 5.44 µM; in data set [6] (Calibr Crypto Panel 2, read-out: Sterling Lab C. parvum Spot Count EC90), 8.29 µM. Further, the cytotoxic concentration (CC50) (usually the concentration that lowers cell viability or growth by half) is 22.2 µM in [3] and greater than 25 µM in data set [4].
As for `CC1(C)Cn2nc(-c3ccc4cc(OC5CC5)ccc4c3)c(C(N)=O)c2NC1O` (stereo not shown) [compound 1862], the “RLU Raw” value in data set [7] (8 mg/kg x 3 d, Day 6) stood at 1384352 RLU; in [7] (8 mg/kg x 3 d, Day 7), 821824 RLU; in [7] (8 mg/kg x 3 d, Day 8) it was 1485152 RLU; in data set [7] (8 mg/kg x 3 d, Day 9), 162144 RLU; in data set [7] (8 mg/kg x 3 d, Day 10) it was 41552 RLU; in data set [7] (8 mg/kg x 3 d, Day 13) it was 6176 RLU. Further, the “RLU Raw” value is 4992 RLU in data set [7] (8 mg/kg x 3 d, Day 15); 608 RLU in [7] (8 mg/kg x 3 d, Day 17); 1296 RLU in data set [7] (8 mg/kg x 3 d, Day 20); 1490624 RLU in data set [7] (15 mg/kg x 3 d, Day 6); 876560 RLU in data set [7] (15 mg/kg x 3 d, Day 7); 670544 RLU in [7] (15 mg/kg x 3 d, Day 8). For the same molecule, the “RLU Raw” value in data set [7] (15 mg/kg x 3 d, Day 9) was found to be 9856 RLU; in data set [7] (15 mg/kg x 3 d, Day 10), 2928 RLU; in [7] (15 mg/kg x 3 d, Day 13), 512 RLU; in [7] (15 mg/kg x 3 d, Day 15), 400 RLU; in [7] (15 mg/kg x 3 d, Day 17) it was 288 RLU; in data set [7] (15 mg/kg x 3 d, Day 20) it was 192 RLU. The “RLU Raw” value was 1093968 RLU in data set [7] (30 mg/kg x 3 d, Day 6); 650000 RLU in data set [7] (30 mg/kg x 3 d, Day 7); 37104 RLU in data set [7] (30 mg/kg x 3 d, Day 8); 1536 RLU in [7] (30 mg/kg x 3 d, Day 9); 336 RLU in data set [7] (30 mg/kg x 3 d, Day 10); 208 RLU in data set [7] (30 mg/kg x 3 d, Day 13). Besides, the “RLU Raw” value in [7] (30 mg/kg x 3 d, Day 15) turned out to be 240 RLU; in [7] (30 mg/kg x 3 d, Day 17), 2640 RLU; in data set [7] (30 mg/kg x 3 d, Day 20), 192 RLU. The “RLU standardized by fecal weight (Normalized)” value (from here on “RLU standardized … (Normalized)”) is 226943 RLU in data set [7] (8 mg/kg x 3 d, day 6 p.i.); 75397 RLU in data set [7] (8 mg/kg x 3 d, day 7 p.i.); 146320 RLU in [7] (8 mg/kg x 3 d, day 8 p.i.); 15516 RLU in [7] (8 mg/kg x 3 d, day 9 p.i.); 4240 RLU in data set [7] (8 mg/kg x 3 d, day 10 p.i.); 468 RLU in [7] (8 mg/kg x 3 d, day 13 p.i.). The “RLU standardized … (Normalized)” value in data set [7] (8 mg/kg x 3 d, day 15 p.i.) is 409 RLU; in data set [7] (8 mg/kg x 3 d, day 17 p.i.) it was 61 RLU; in [7] (8 mg/kg x 3 d, day 20 p.i.) it was 214 RLU; in data set [7] (15 mg/kg x 3 d, day 6 p.i.), 200084 RLU; in data set [7] (15 mg/kg x 3 d, day 7 p.i.), 110259 RLU; in data set [7] (15 mg/kg x 3 d, day 8 p.i.), 111757 RLU. The “RLU standardized … (Normalized)” value in data set [7] (15 mg/kg x 3 d, day 9 p.i.) is reported as 1398 RLU; in data set [7] (15 mg/kg x 3 d, day 10 p.i.) it was 284 RLU; in data set [7] (15 mg/kg x 3 d, day 13 p.i.) it was 37 RLU; in [7] (15 mg/kg x 3 d, day 15 p.i.), 29 RLU; in data set [7] (15 mg/kg x 3 d, day 17 p.i.), 32 RLU; in data set [7] (15 mg/kg x 3 d, day 20 p.i.), 66 RLU. Moreover, the “RLU standardized … (Normalized)” value in [7] (30 mg/kg x 3 d, day 6 p.i.) stood at 163279 RLU; in [7] (30 mg/kg x 3 d, day 7 p.i.) it was 191176 RLU; in data set [7] (30 mg/kg x 3 d, day 8 p.i.) it was 11969 RLU; in data set [7] (30 mg/kg x 3 d, day 9 p.i.), 290 RLU; in data set [7] (30 mg/kg x 3 d, day 10 p.i.) it was 51 RLU; in data set [7] (30 mg/kg x 3 d, day 13 p.i.) it was 29 RLU. For the same molecule, the “RLU standardized … (Normalized)” value stood at 21 RLU in data set [7] (30 mg/kg x 3 d, day 15 p.i.); 290 RLU in data set [7] (30 mg/kg x 3 d, day 17 p.i.); 23 RLU in data set [7] (30 mg/kg x 3 d, day 20 p.i.). The Brains concentration in data set [8] turned out to be 0.0641 µM.
`CC(=O)Nc1cccc(-n2c(=O)n(C3CC3)c(=O)c3c(Nc4ccc(I)cc4F)n(C)c(=O)c(C)c32)c1` [Trametinib]: the “inhibitory concentration in MEK1 proliferation-dependent cell lines” value in data set [9] fell in the range of 7 to 60 nM.
As to `CC(C)(CO)Cn1nc(-c2ccc3cc(OC4CC4)ccc3c2)c(C(N)=O)c1N` [BKI-1708], the “plasma level without appreciable effect on MAP, HR, contractility, SVR, CO, QT, QRS, PR” value in data set [10] was 95 µM. For the same molecule, the Clinical scores in [11] worked out at 10.5. The “Weights, %∆” value in data set [11] is 6.329% and 8.511% and 5.263%. Besides, in data set [11], the “Weights, %∆, mean” value was 6.701%. For the same molecule, the efficacy result in data set [7] (8 mg/kg QD x 3) is on record as “failed to recapitulate efficacy”. Besides, the “log reduction in oocyst shedding” value was found to be 2.1 log in [7] (15 mg/kg x 2 days, day 20 p.i.); 1.4 log in [7] (single 15 mg/kg dose, 13 days p.i.); 1.7 log in data set [7] (single 15 mg/kg dose, 20 days p.i.); 3.5 log in [7] (single 60 mg/kg dose, 13 days p.i.). In [7] (60, 30 and 15 mg/kg QD x 3, up to 20 days p.i.), the “log reduction vs peak infection levels of untreated control” value is listed as greater than 4 log. Also, the “day p.i. oocyst shedding reached LoD” value in data set [7] (BKI-1708 15 mg/kg QD x 3 PO) and in data set [7] (BKI-1708 30 mg/kg QD x 3 PO) was no more than 13 days throughout. In addition, the “day p.i. oocyst shedding below LoD” value in data set [7] (BKI-1708 60 mg/kg QD x 3 PO) is no more than 10 days. For the same molecule, the “log reduction in oocyst shedding over untreated controls” value in data set [12] is greater than 3 log. The “maximum tolerated single dose” value in data set [13] is 400 mg/kg. Also, in [14], the half-maximal effective concentration (EC50) was 0.4 µM. The inhibition – broadly, the percentage by which the read-out fell short of the control – at 10 µM in data set [15] is 24.3%. Also, in [16], the IVMN test result was “no change in the frequency of micronucleated cells”. For the same molecule, the “postnatal mortality (%)” value in [17] amounted to 0%.
